In ChEMBL document CHEMBL5506040, “Design of FK866-Based Degraders for Blocking the Nonenzymatic Functions of Nicotinamide Phosphoribosyltransferase” (J Med Chem, 2024):
Active and inactive are the calls of the source. The rule behind the calls is not given here.

What was measured:
CT26 [1] = test: Antitumor activity against mouse CT26 cells implanted in immunocompetent female BALB/c mouse model assessed as reduction in tumor size at 20 mg/kg, ip administered for 30 days; format: functional, organism-based; settings: time 30.0 day
[2] = AUC (0 to 24 hrs) in male Sprague-Dawley rat at 14 mg/kg, ip measured after 24 hrs by LC/MS-MS analysis; format: ADME, organism-based; settings: in vivo
CT26 [3] = test: cells; settings: Mus musculus, CT26, 72 h
Description: Cytotoxicity against mouse CT26 cells assessed as inhibition of cell growth incubated for 72 hrs by MTT assay

[4] = Toxicity in immunocompetent BALB/c mouse implanted with mouse CT26 cells assessed as decrease in spleen index at 20 mg/kg, ip administered for 30 days relative to FK866; format: organism-based; settings: in vivo, 720 h, time 30 day
[5] = biological target: T1, von Hippel-Lindau disease tumor suppressor/Nicotinamide phosphoribosyltransferase (Mus musculus) (UniProt Q99KQ4+P40338); test: PROTAC activity at VHL/NAMPT in mouse CT26 cells assessed as induction of intracellular NAMPT degradation incubated for 24 hrs by immunoblot analysis; format: cell-based; settings: dose 0.1-5 µM
[6] = Half-life in male Sprague-Dawley rat at 14 mg/kg, ip measured after 24 hrs by LC/MS-MS analysis; format: ADME, organism-based; settings: in vivo
CT26 [7] = test: Antitumor activity against mouse CT26 cells implanted in immunocompetent female BALB/c mouse model assessed as reduction in TNF-alpha expression at 20 mg/kg, ip administered for 30 days by ELISA; format: functional, organism-based; settings: time 30.0 day
MIA PaCa-2 = test: cells; settings: Homo sapiens, MIA PaCa-2, 72 h
Description: Cytotoxicity against human MIA PaCa-2 cells assessed as inhibition of cell growth incubated for 72 hrs by MTT assay

[8] = Toxicity in immunocompetent female BALB/c mouse implanted with mouse CT26 cells assessed as body weight loss at 20 mg/kg, ip administered for 30 days; format: organism-based; settings: in vivo, 720 h, time 30 day
[9] = Apparent volume of distribution during terminal phase in male Sprague-Dawley rat at 14 mg/kg, ip measured after 24 hrs by LC/MS-MS analysis; format: ADME, organism-based; settings: in vivo, read-out: Vz/F
[10] = Tmax in male Sprague-Dawley rat at 14 mg/kg, ip measured after 24 hrs by LC/MS-MS analysis; format: ADME, organism-based; settings: in vivo
CT26 [11] = test: Antitumor activity against mouse CT26 cells implanted in immunocompetent female BALB/c mouse model assessed as reduction in IL-6 expression at 20 mg/kg, ip administered for 30 days by ELISA; format: functional, organism-based; settings: time 30.0 day
[12] = biological target: von Hippel-Lindau disease tumor suppressor/Nicotinamide phosphoribosyltransferase (Mus musculus, UniProt Q99KQ4+P40338); test: (§1) PROTAC activity at VHL/NAMPT in mouse CT26 cells assessed as induction of intracellular NAMPT degradation incubated for 24 hrs by Western blot analysis; format: cell-based
[13] = biological target: T1, von Hippel-Lindau disease tumor suppressor/Nicotinamide phosphoribosyltransferase (Mus musculus); test: as §1; format: cell-based
CT26 [14] = test: Antitumor activity against mouse CT26 cells implanted in immunocompetent female BALB/c mouse model assessed as reduction in tumor growth at 20 mg/kg, ip administered for 30 days; format: functional, organism-based; settings: time 30.0 day
[15] = Toxicity in immunocompetent BALB/c mouse implanted with mouse CT26 cells assessed as change in spleen size at 20 mg/kg, ip administered for 30 days relative to control group; format: organism-based; settings: in vivo, 720 h, time 30 day
[16] = Cmax in male Sprague-Dawley rat at 14 mg/kg, ip measured after 24 hrs by LC/MS-MS analysis; format: ADME, organism-based; settings: in vivo
[17] = biological target: T1, von Hippel-Lindau disease tumor suppressor/Nicotinamide phosphoribosyltransferase (Mus musculus); test: PROTAC activity at VHL/NAMPT in mouse CT26 cells assessed as induction of extracellular NAMPT degradation incubated for 24 hrs by immunoblot analysis; format: cell-based; settings: dose 0.1-5 µM
[18] = Toxicity in immunocompetent BALB/c mouse implanted with mouse CT26 cells assessed as effect on liver histopathology at 20 mg/kg, ip administered for 30 days by H and E staining based analysis; format: organism-based; settings: in vivo, 720 h, time 30 day
SK-OV-3 = test: cells; settings: Homo sapiens, SK-OV-3, 72 h
Description: Cytotoxicity against human SK-OV-3 cells assessed as inhibition of cell growth incubated for 72 hrs by MTT assay

[19] = Induction of NAMPT degradation in immunocompetent female BALB/c mouse implanted with mouse CT26 cells assessed as reduction in intracellular NAMPT level in tumor by measuring fold change at 20 mg/kg, ip administered for 30 days by Western blot analysis (reference value: 1.00); format: functional; settings: time 30 day
[20] = Toxicity in immunocompetent BALB/c mouse implanted with mouse CT26 cells assessed as punctate necrosis in liver at 20 mg/kg, ip administered for 30 days by H and E staining based analysis; format: organism-based; settings: in vivo, 720 h, time 30 day

T1 sequence (P40338 whole entry, looked up): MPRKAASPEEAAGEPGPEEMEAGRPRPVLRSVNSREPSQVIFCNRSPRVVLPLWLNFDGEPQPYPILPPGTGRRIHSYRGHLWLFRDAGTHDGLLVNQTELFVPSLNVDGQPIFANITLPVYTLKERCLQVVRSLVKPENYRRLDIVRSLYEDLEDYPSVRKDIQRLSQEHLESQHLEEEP
T1 sequence (Q99KQ4 whole entry, looked up): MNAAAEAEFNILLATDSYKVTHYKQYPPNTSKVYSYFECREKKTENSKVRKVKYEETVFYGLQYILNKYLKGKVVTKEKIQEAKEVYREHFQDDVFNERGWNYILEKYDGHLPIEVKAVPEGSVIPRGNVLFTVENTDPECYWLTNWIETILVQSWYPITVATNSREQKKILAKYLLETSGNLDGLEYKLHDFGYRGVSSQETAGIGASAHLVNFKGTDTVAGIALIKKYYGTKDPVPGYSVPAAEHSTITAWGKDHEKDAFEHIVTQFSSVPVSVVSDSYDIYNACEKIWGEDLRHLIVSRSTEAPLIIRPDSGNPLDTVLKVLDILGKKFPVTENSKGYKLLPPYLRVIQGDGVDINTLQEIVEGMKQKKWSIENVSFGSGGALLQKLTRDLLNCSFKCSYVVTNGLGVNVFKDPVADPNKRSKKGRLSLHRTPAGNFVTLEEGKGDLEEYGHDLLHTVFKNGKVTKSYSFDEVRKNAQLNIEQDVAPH
Sequence of von Hippel-Lindau disease tumor suppressor/Nicotinamide phosphoribosyltransferase (Q99KQ4 whole entry): as the sequence (Q99KQ4 whole entry, looked up) above
Sequence of von Hippel-Lindau disease tumor suppressor/Nicotinamide phosphoribosyltransferase (P40338 whole entry): as the sequence (P40338 whole entry, looked up) above

Cc1ncsc1-c1ccc([C@@H](C)NC(=O)[C@H]2C[C@H](O)CN2C(=O)[C@H](NC(=O)COCCOCCOCCNC(=O)c2ccc(C(=O)N3CCC(CCCCNC(=O)/C=C/c4cccnc4)CC3)cc2)C(C)(C)C)cc1
Activity (CT26 [1]): Active | AUC(0-t) at 24 h [2]: 919 ng·h/mL | IC50 (CT26 [3]): 25800 nM | Activity [4]: Toxic | Activity [5]: Dose-Dependent Effect | half-life [6]: 22 h | Activity (CT26 [7]): Active | IC50 (MIA PaCa-2): 4 nM | Activity [8]: Non-Toxic | Vd/F [9]: 0.483 L/kg | Tmax [10]: 1 h | Activity (CT26 [11]): Active | DC50 [12]: 520 nM | Activity [13]: Dose-Dependent Effect | Activity (CT26 [14]): Active | Activity [15]: Non-Toxic | Cmax [16]: 147 ng/mL | Activity [17]: Dose-Dependent Effect | Activity [18]: Non-Toxic | IC50 (SK-OV-3): 1020 nM

O=C(/C=C/c1cccnc1)NCCCCC1CCN(C(=O)c2ccccc2)CC1 [DAPORINAD]
fold change (FC) [19]: 1.04 | Activity [20]: Toxic | IC50 (CT26 [3]): 39 nM | Activity [8]: Non-Toxic | Activity [15]: Toxic | IC50 (SK-OV-3): 6 nM
